One block for each compound: values may come before it.
Key:
β-Adrenergic receptor = assay: cAMP detection in A375 cells, endogenous β-Adrenergic receptor; assay type: cell-based; details: Fig. 5C, n = 3; for Change of cAMP levels, β-Adrenergic antagonist: in the presence of 50 nM Isopreterenol; for Change of cAMP levels, β-Adrenergic agonist: 5 min treatment
Experimental: (§1) Media was removed from wells and 5µL of the diluted compounds were added to each well. […] Plates were mixed on an orbital shaker for 5 min at 400 rpm. […] 5µL of 2% trichloroacetic acid (TCA, Fisher Scientific SA9410-500) in water were added to wells to terminate reactions and lyse cells. […] Plates were mixed on an orbital shaker for 5 min at 400 rpm. […] Plates were mixed on an orbital shaker for 5 min at 400 rpm then incubated for 30 min at room temperature. […] Luminescence signal was measured on a GloMax Discover Microplate Reader within 15 min.
(§2) The assays were conducted by treatment of cells followed by lysis with 2% TCA, which also terminates the reactions. Cell lysates were then incubated with antibodies and tracer diluted in 0.3 M Tris buffer (pH 9.0; for neutralization) for 30 min after which time the detection reagent was added.

Dopamine D1 = Dopamine D1 (Homo sapiens, UniProt P21728); assay: cAMP detection in HEK293 cells stably transfected with DRD1; assay type: cell-based; details: n = 3
Experimental: as §1, §2

[1] = system: Anti-cAMP primary antibody (GenScript A01509); assay: cAMP Lumit immunoassay: cAMP standard curve, specificity and competition testing; assay type: binding; details: n = 2; for Luminescence signal drop on titration instead of cAMP (specificity): concentrations up to 10 µM, Fig. 2C,D; for Interference with cAMP standard curve: metabolite included at 10 µM in cAMP titration, Fig. 2E,F
HEK293 cells = assay: cAMP detection in HEK293 cells treated with Forskolin; assay type: cell-based; details: 30 min treatment, Fig. 5D, n = 3
Experimental: as §1, §2

PDE4A1A = molecular target: T1, PDE4A1A (Homo sapiens, UniProt P27815); assay: PDE4 inhibition study (cAMP Lumit detection); assay type: biochemical; details: 20 ng PDE4A1A per reaction, 10 µM cAMP, n = 2, Fig. 4
T1 construct: purchased BPS Biosciences 60040
Experimental: Plates were mixed on an orbital shaker for 5 min at 400 rpm.

Adenosine receptor = assay: cAMP detection in A375 cells, endogenous Adenosine receptor; assay type: cell-based; details: 1 h treatment, Fig. 5D, n = 3
Experimental: as §1, §2

Dopamine D1, sequence (P21728 whole entry): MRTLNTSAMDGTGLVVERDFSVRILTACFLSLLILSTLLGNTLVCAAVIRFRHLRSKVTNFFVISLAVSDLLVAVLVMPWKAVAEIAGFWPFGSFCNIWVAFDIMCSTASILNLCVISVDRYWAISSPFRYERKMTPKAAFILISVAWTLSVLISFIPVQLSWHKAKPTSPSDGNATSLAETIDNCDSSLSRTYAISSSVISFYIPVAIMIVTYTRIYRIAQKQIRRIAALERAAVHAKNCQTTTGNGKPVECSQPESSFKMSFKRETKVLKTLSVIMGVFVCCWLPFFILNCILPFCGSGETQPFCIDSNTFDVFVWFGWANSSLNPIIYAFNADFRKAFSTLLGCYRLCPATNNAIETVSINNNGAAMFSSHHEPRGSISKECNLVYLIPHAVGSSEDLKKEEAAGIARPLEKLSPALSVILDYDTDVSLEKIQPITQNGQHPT
T1 sequence (P27815 1-647 isoform P27815-4): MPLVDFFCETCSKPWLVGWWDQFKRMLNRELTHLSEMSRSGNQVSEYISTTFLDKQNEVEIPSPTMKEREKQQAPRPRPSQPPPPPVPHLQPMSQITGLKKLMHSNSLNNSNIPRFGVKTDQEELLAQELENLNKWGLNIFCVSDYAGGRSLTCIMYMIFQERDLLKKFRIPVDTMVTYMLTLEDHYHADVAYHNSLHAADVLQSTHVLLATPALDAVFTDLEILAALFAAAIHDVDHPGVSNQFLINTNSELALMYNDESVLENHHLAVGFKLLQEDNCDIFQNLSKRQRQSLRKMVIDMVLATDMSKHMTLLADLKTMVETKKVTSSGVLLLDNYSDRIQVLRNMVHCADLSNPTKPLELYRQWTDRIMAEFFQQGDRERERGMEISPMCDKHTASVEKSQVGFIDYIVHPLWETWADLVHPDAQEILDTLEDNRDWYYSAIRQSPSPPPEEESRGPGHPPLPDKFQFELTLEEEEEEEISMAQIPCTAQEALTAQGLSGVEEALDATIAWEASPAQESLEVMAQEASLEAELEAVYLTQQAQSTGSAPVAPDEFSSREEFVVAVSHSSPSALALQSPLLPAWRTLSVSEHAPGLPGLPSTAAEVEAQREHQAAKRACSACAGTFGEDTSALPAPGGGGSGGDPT

SMILES: C=CCc1ccccc1OCC(O)CNC(C)C (stereo not drawn) [Alprenolol]
Change of cAMP levels, β-Adrenergic antagonist (β-Adrenergic receptor): cAMP levels reduction

Change of cAMP levels, DRD1 antagonist (Dopamine D1; HEK293 stably transfected with DRD1, in the presence of 100 nM SKF38393, Fig. 5A): cAMP levels reduction
SMILES: CN1CCc2cc(Cl)c(O)cc2[C@@H](c2ccccc2)C1 [SCH23390]

Change of cAMP levels, DRD1 agonist (Dopamine D1; HEK293 stably transfected with DRD1, 1 h treatment, Fig. 5A): cAMP levels increase
SMILES: Oc1cc2c(cc1O)C(c1ccccc1)CNCC2 (stereo not drawn) [SKF38393]

SMILES: Nc1nc2c(ncn2[C@@H]2O[C@@H]3COP(=O)(O)O[C@H]3[C@H]2O)c(=O)[nH]1 [cGMP, cyclic guanosine monophosphate]
Luminescence signal drop on titration instead of cAMP (specificity) [1]: None of the tested metabolites resulted in a significant luminescence signal drop
Interference with cAMP standard curve [1]: no effect

SMILES: CNC[C@H](O)c1ccc(O)c(O)c1 [Epinephrine]
Change of cAMP levels, β-Adrenergic agonist (β-Adrenergic receptor): cAMP levels increase

SMILES: CC(C)NCC(O)c1ccc(O)c(O)c1 (stereo not drawn) [Isopreterenol, Isoproterenol]
Change of cAMP levels, β-Adrenergic agonist (β-Adrenergic receptor): cAMP levels increase

SMILES: C=C[C@@]1(C)CC(=O)[C@]2(O)[C@@]3(C)[C@@H](O)CCC(C)(C)[C@@H]3[C@H](O)[C@H](OC(C)=O)[C@@]2(C)O1 [Forskolin]
Change of cAMP levels (HEK293 cells): cAMP levels increase

SMILES: Nc1nc2c(ncn2[C@@H]2O[C@@H]3COP(=O)(O)O[C@H]4[C@@H](O)[C@H](n5cnc6c(N)ncnc65)O[C@@H]4COP(=O)(O)O[C@H]3[C@H]2O)c(=O)[nH]1 [3′3′-cGAMP, 3′3′-cyclic guanosine monophosphate-adenosine monophosphate]
Luminescence signal drop on titration instead of cAMP (specificity) [1]: None of the tested metabolites resulted in a significant luminescence signal drop
Interference with cAMP standard curve [1]: no effect

IC50 (PDE4A1A): 7.3 nM
SMILES: CCOc1ccccc1C(=O)NCc1coc(-c2ccc(OC(F)F)c(OC(C)C)c2)n1 [Difamilast]

SMILES: CCNC(=O)[C@H]1O[C@@H](n2cnc3c(N)ncnc32)[C@H](O)[C@@H]1O [NECA]
Change of cAMP levels, Adenosine receptor agonist (Adenosine receptor): cAMP levels increase

SMILES: CC(C)NCC(O)COc1cccc2ccccc12 (stereo not drawn) [Propranolol]
Change of cAMP levels, β-Adrenergic antagonist (β-Adrenergic receptor): cAMP levels reduction

SMILES: Nc1nc2c(ncn2[C@@H]2O[C@@H]3COP(=O)(O)O[C@H]4[C@@H](O)[C@H](n5cnc6c(N)ncnc65)O[C@@H]4COP(=O)(O)O[C@@H]2[C@@H]3O)c(=O)[nH]1 [2′3′-cGAMP, 2′3′-cyclic guanosine monophosphate-adenosine monophosphate]
Luminescence signal drop on titration instead of cAMP (specificity) [1]: None of the tested metabolites resulted in a significant luminescence signal drop
Interference with cAMP standard curve [1]: no effect

Reference: PMC10891162 (Scientific Reports, 2024)
